# How the values were obtained:
# Experiment in all cases: KINOMEscan competition binding
# Conditions in all cases: compound 10.0 µM
# [1] = tested on: ABL1 (human), P00519 [E255K]
# [2] = target: BMPR1A (human) (UniProt P36894)
# [3] = target: BTK (human) (UniProt Q06187)
# [4] = target: CDK11B (human) (UniProt P21127)
# [5] = target: CSNK1D (human) (UniProt P48730)
# [6] = target: CSNK2A2 (human) (UniProt P19784)
# [7] = target: DYRK1A (human) (UniProt Q13627)
# [8] = tested on: EGFR (human), P00533 [747-751 del / S ins]
# [9] = target: EIF2AK2 (human) (UniProt P19525)
# [10] = target: FGFR3 (human) (UniProt P22607)
# [11] = tested on: FGFR3 (human), P22607 [G697C]
# [12] = target: FGFR4 (human) (UniProt P22455)
# [13] = tested on: FLT3 (human), P36888 [N841I]
# [14] = target: GSK3A (human) (UniProt P49840)
# [15] = target: HIPK3 (human) (UniProt Q9H422)
# [16] = target: INSR (human) (UniProt P06213)
# [17] = target: INSRR (human) (UniProt P14616)
# [18] = target: JAK1 JH2 pseudokinase (human) (UniProt P23458)
# [19] = target: JAK3 JH1 catalytic (human) (UniProt P52333)
# [20] = target: LIMK1 (human) (UniProt P53667)
# [21] = target: MAP2K5 (human) (UniProt Q13163)
# [22] = target: MAP3K13 (human) (UniProt O43283)
# [23] = target: MAP3K15 (human) (UniProt Q6ZN16)
# [24] = target: MAP4K5 (human) (UniProt Q9Y4K4)
# [25] = target: MAPK3 (human) (UniProt P27361)
# [26] = target: MAPKAPK5 (human) (UniProt Q8IW41)
# [27] = target: MARK3 (human) (UniProt P27448)
# [28] = target: MERTK (human) (UniProt Q12866)
# [29] = target: MKNK1 (human) (UniProt Q9BUB5)
# [30] = target: MST4 (human) (UniProt Q9P289)
# [31] = target: NEK1 (human) (UniProt Q96PY6)
# [32] = target: NEK3 (human) (UniProt P51956)
# [33] = target: NEK9 (human) (UniProt Q8TD19)
# [34] = target: NTRK3 (human) (UniProt Q16288)
# [35] = target: PAK6 (human) (UniProt Q9NQU5)
# [36] = target: PIK3C2G (human) (UniProt O75747)
# [37] = target: PLK1 (human) (UniProt P53350)
# [38] = target: RPS6KA5 KD1 (human) (UniProt O75582)
# [39] = target: SIK1 (human) (UniProt P57059)
# [40] = target: SNRK (human) (UniProt Q9NRH2)
# [41] = target: STK32C (human) (UniProt Q86UX6)
# [42] = target: TYRO3 (human) (UniProt Q06418)
# Sequence of RPS6KA5 KD1 (human) (O75582 whole entry, looked up): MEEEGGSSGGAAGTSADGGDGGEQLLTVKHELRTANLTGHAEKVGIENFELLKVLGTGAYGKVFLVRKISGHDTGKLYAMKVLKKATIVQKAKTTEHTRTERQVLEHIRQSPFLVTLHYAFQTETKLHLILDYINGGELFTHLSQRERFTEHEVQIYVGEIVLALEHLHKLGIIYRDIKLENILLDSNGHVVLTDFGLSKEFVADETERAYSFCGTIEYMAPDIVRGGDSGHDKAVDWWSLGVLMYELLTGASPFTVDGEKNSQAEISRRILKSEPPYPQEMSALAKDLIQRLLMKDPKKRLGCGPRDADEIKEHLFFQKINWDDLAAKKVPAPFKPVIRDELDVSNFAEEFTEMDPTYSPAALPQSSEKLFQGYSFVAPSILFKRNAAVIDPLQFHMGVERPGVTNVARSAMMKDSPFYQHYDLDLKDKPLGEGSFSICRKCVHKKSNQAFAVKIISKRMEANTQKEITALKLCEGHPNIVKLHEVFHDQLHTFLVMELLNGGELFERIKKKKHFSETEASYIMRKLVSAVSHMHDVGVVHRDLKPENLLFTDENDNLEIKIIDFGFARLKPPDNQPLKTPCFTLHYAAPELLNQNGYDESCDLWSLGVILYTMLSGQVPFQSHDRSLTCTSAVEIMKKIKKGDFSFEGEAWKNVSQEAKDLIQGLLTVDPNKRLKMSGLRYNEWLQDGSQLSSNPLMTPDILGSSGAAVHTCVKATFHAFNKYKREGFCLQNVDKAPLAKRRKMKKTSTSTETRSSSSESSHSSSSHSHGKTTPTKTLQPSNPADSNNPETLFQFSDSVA
# Sequence of MAP2K5 (human) (Q13163 whole entry, looked up): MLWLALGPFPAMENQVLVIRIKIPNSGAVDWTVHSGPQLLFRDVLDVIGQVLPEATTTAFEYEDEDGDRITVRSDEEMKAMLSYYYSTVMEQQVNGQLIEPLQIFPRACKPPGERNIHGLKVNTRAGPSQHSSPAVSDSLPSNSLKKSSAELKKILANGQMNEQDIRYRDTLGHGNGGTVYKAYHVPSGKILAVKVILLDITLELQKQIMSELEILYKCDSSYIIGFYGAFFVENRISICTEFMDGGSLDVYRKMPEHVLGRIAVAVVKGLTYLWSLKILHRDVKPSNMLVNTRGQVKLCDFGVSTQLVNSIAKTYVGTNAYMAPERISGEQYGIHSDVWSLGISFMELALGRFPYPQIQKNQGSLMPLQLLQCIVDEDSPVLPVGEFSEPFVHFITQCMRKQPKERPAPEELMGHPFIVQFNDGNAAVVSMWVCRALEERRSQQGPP
# Sequence of FGFR4 (human) (P22455 whole entry, looked up): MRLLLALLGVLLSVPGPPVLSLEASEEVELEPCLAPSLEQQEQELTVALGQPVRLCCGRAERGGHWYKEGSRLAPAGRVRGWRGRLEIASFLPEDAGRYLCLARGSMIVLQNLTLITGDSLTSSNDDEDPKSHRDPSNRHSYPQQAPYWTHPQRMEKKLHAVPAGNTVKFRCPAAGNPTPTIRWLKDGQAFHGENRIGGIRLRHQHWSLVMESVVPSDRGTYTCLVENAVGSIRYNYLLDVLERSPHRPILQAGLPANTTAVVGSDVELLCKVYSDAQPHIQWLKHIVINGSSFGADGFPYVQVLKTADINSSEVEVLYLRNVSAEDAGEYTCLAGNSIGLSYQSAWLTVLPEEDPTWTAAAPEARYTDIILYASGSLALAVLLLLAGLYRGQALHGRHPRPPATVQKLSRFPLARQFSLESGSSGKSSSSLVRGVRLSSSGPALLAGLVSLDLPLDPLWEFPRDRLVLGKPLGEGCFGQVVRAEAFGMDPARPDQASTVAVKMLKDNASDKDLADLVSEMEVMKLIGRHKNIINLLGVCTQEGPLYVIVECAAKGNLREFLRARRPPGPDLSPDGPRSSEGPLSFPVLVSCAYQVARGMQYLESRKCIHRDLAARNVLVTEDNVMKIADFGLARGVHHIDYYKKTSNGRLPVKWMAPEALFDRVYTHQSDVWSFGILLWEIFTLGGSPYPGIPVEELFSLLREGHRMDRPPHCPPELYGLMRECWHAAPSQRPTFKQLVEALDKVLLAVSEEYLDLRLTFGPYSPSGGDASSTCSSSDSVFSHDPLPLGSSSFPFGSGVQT
# Sequence of MAP3K15 (human) (Q6ZN16 whole entry, looked up): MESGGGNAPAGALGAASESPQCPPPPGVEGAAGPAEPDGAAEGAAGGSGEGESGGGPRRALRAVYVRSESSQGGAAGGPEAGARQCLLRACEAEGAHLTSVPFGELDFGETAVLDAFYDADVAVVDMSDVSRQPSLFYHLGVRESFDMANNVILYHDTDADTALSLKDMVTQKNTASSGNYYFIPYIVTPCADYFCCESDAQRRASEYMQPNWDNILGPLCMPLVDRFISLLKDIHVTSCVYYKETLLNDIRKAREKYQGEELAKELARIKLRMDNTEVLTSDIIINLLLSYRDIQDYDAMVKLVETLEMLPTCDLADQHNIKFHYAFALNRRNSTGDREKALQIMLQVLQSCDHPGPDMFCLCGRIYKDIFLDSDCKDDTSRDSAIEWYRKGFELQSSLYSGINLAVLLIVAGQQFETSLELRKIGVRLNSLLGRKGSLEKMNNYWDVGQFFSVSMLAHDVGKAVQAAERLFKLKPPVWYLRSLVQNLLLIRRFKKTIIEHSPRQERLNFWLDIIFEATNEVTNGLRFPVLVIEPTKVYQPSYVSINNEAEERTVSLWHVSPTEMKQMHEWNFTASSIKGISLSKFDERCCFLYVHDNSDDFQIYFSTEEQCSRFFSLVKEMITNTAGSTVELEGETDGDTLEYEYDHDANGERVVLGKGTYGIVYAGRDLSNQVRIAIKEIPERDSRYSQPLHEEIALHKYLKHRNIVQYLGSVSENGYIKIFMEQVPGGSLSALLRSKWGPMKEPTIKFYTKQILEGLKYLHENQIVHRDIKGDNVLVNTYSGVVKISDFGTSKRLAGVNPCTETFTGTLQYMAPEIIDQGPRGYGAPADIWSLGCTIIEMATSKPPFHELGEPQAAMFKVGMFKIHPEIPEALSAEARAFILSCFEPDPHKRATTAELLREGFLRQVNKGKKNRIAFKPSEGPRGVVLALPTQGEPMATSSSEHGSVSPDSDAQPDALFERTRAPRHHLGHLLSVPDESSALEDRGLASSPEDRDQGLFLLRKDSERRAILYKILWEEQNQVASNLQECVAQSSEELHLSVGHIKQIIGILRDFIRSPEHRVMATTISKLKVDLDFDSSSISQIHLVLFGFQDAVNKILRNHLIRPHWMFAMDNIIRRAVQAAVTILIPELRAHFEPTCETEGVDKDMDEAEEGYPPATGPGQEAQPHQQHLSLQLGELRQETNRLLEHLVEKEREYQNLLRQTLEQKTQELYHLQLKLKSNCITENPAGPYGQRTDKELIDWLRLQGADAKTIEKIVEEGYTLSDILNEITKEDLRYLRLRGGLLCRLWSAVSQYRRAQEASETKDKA
# Sequence of MKNK1 (human) (Q9BUB5 whole entry, looked up): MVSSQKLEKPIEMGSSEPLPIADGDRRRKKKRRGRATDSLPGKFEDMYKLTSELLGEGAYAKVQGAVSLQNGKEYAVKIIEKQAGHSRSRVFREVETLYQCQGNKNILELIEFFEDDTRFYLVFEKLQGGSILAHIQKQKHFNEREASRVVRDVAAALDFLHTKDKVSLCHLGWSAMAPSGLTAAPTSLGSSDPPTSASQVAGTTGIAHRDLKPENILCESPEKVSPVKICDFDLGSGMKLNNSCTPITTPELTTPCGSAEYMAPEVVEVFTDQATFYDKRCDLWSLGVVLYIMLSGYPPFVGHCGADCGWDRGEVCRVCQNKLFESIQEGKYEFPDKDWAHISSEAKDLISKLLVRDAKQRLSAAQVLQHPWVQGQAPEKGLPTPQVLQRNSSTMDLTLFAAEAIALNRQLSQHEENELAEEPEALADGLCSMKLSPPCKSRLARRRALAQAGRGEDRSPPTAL
# Sequence of BMPR1A (human) (P36894 whole entry, looked up): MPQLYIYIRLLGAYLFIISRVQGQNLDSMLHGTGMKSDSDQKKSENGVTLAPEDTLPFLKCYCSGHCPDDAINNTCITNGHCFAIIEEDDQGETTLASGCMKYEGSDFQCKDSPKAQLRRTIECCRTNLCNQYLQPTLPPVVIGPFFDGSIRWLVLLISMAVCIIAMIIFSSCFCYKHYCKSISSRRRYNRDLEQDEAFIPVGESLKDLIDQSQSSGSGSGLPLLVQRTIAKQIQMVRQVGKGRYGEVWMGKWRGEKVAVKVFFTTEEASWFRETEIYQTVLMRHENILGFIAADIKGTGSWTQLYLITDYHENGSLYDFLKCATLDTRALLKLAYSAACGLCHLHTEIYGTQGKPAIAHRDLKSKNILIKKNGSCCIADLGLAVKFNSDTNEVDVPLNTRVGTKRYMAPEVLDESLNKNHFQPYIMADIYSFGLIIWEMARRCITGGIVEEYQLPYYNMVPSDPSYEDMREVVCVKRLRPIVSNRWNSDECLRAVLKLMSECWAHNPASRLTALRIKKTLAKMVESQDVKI
# Sequence of LIMK1 (human) (P53667 whole entry, looked up): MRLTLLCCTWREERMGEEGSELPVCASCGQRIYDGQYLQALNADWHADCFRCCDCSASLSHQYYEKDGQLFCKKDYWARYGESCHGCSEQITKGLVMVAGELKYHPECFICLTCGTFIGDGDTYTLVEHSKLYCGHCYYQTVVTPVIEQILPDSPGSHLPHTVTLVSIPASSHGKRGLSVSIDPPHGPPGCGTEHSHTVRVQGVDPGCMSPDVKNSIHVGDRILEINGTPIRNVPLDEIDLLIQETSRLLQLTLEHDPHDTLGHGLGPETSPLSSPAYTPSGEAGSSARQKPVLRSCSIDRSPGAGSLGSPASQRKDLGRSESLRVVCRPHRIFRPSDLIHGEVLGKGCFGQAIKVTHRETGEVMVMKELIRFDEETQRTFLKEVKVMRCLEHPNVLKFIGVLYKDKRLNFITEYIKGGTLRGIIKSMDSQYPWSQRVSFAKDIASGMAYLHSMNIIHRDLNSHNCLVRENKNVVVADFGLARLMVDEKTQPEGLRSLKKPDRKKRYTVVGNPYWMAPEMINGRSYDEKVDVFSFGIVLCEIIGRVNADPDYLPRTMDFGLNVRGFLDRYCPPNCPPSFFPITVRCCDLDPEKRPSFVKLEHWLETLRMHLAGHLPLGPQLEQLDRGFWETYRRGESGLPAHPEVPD
compound,measurement,setting,value
Cc1cc([C@@H](C)Nc2ccccc2C(=O)O)c2nc(N3CCOCC3)cc(=O)n2c1,"kinase still bound, per cent of control",[1],100%
same,"kinase still bound, per cent of control",[2],79%
same,"kinase still bound, per cent of control",[3],80%
same,"kinase still bound, per cent of control",[4],100%
same,"kinase still bound, per cent of control",[5],57%
same,"kinase still bound, per cent of control",[6],64%
same,"kinase still bound, per cent of control",[7],99%
same,"kinase still bound, per cent of control",[8],68%
same,"kinase still bound, per cent of control",[9],100%
same,"kinase still bound, per cent of control",[10],100%
same,"kinase still bound, per cent of control",[11],100%
same,"kinase still bound, per cent of control",[12],40%
same,"kinase still bound, per cent of control",[13],26%
same,"kinase still bound, per cent of control",[14],100%
same,"kinase still bound, per cent of control",[15],68%
same,"kinase still bound, per cent of control",[16],79%
same,"kinase still bound, per cent of control",[17],100%
same,"kinase still bound, per cent of control",[18],100%
same,"kinase still bound, per cent of control",[19],100%
same,"kinase still bound, per cent of control",[20],100%
same,"kinase still bound, per cent of control",[21],100%
same,"kinase still bound, per cent of control",[22],100%
same,"kinase still bound, per cent of control",[23],55%
same,"kinase still bound, per cent of control",[24],92%
same,"kinase still bound, per cent of control",[25],94%
same,"kinase still bound, per cent of control",[26],90%
same,"kinase still bound, per cent of control",[27],95%
same,"kinase still bound, per cent of control",[28],100%
same,"kinase still bound, per cent of control",[29],31%
same,"kinase still bound, per cent of control",[30],100%
same,"kinase still bound, per cent of control",[31],100%
same,"kinase still bound, per cent of control",[32],65%
same,"kinase still bound, per cent of control",[33],94%
same,"kinase still bound, per cent of control",[34],75%
same,"kinase still bound, per cent of control",[35],96%
same,"kinase still bound, per cent of control",[36],16%
same,"kinase still bound, per cent of control",[37],55%
same,"kinase still bound, per cent of control",[38],100%
same,"kinase still bound, per cent of control",[39],100%
same,"kinase still bound, per cent of control",[40],54%
same,"kinase still bound, per cent of control",[41],89%
same,"kinase still bound, per cent of control",[42],100%

# From the kinase profiling compilation of Christmann-Franck et al. (2016)
